# In US9777003B2, “Tricyclic heterocycles as bet protein inhibitors” (Incyte Corporation, priority 2013, dated 2017):
# Where a name gives a salt, the structure may show the parent alone. Read-outs that look alike come from different tables or passages of the source.
# What was measured:
# KMS.12.BM cells = assay: KMS.12.BM cell viability assay (Cell Titer-GLO, ATP quantitation); assay type: cell-based; conditions: KMS.12.BM human myeloma cells, 3 days, concentration required for 50% cell death, read-out: KMS cellular IC50
# Procedure: KMS.12.BM cell line (human myeloma) was purchased from JCRB (Osaka, Japan) and maintained in RPMI with 10% FBS culture medium. To measure the cytotoxic activity of the compounds through ATP quantitation, the KMS.12.BM cells are plated in the RPMI culture medium at 5000 cells/well/per 100 μL into a 96-well polystyrene clear black tissue culture plate (Greiner-bio-one through VWR, NJ), in the presence or absence of a concentration range of test compounds. After 3 days, […] Cell Titer-GLO Luminescent (Promega, Madison, Wis.) cell culture agent is added to each well for 10 minutes at room temperature to stabilize the luminescent signal. This determines the number of viable cells in culture based on quantitation of the ATP present, which signals the presence of metabolically active cells. Luminescence is measured with the Top Count 384 (Packard Bioscience through Perkin Elmer, Boston, Mass.). […] IC50 data for the Examples is presented in Table 4 as determined by Assay B1.
# BRD4-BD1 = BRD4-BD1 (Homo sapiens (Human), UniProt O60885); assay: BRD4 AlphaScreen assay, BRD4-BD1; assay type: binding; conditions: biotin-labeled tetra-acetylated histone H4 peptide, 75 min, room temperature, read-out: BRD4 BD-1 enzyme IC50
# Summary of the method: (§1)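 IC50 values from percent-control versus log inhibitor fits after bead-based proximity readout (streptavidin donor, GSH acceptor, 75 min dark). Reactions: 75 min RT, pH 7.4 HEPES, biotin-H4Ac4 peptide 50 nM, with BD1 at 3.8 nM (DMSO 1.25%) and BD2 at 20 nM (DMSO 0.83%).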
# BRD4-BD2 = BRD4-BD2 (Homo sapiens (Human), UniProt O60885); assay: BRD4 AlphaScreen assay, BRD4-BD2; assay type: binding; conditions: biotin-labeled tetra-acetylated histone H4 peptide, 75 min, room temperature, read-out: BRD4 BD-2 enzyme IC50
# Summary of the method: as §1
IC50 (BRD4-BD1) [nM],IC50 (BRD4-BD2) [nM],Structure (SMILES),IC50 (KMS.12.BM cells) [nM],IC50 (KMS.12.BM cells; 72 h) [nM]
,,"Cc1cc2c(cc(N[C@@H]3CCN(C)[C@H](C)C3)c3nnc(C)n32)n1Cc1ccccc1 (mixture of isomers) [Example 224, 6-Benzyl-N-[(2S,4S)-1,2-dimethylpiperidin-4-yl]-1,7-dimethyl-6H-pyrrolo[2,3-e][1,2,4]triazolo[4,3-a]pyridin-4-amine and 6-Benzyl-N-[(2R,4R)-1,2-dimethylpiperidin-4-yl]-1,7-dimethyl-6H-pyrrolo[2,3-e][1,2,4]triazolo[4,3-a]pyridin-4-amine]",≤ 1000,
100 to 1000,≤ 100,"CCCC(=O)Nc1cc2c(cc(C)n2Cc2ccccc2)n2c(C)nnc12 [Example 267, N-(6-Benzyl-1,7-dimethyl-6H-pyrrolo[2,3-e][1,2,4]triazolo[4,3-a]pyridin-4-yl)butyramide]",,
≤ 100,≤ 100,"CCC(=O)Nc1cc2c(cc(C)n2Cc2ccccc2)n2c(C)nnc12 [Example 268, N-(6-Benzyl-1,7-dimethyl-6H-pyrrolo[2,3-e][1,2,4]triazolo[4,3-a]pyridin-4-yl)propionamide]",,
≤ 100,≤ 100,"Cc1cc2c(cc(NC(=O)C3CC3)c3nnc(C)n32)n1Cc1ccccc1 [Example 269, N-(6-Benzyl-1,7-dimethyl-6H-pyrrolo[2,3-e][1,2,4]triazolo[4,3-a]pyridin-4-yl)cyclopropanecarboxamide]",,
≤ 100,≤ 100,"Cc1cc2c(cc(NC(=O)C(C)C)c3nnc(C)n32)n1Cc1ccccc1 [Example 270, N-(6-Benzyl-1,7-dimethyl-6H-pyrrolo[2,3-e][1,2,4]triazolo[4,3-a]pyridin-4-yl)isobutyramide]",,
100 to 1000,≤ 100,"Cc1cc2c(cc(NS(C)(=O)=O)c3nnc(C)n32)n1Cc1ccccc1 [Example 271, N-(6-Benzyl-1,7-dimethyl-6H-pyrrolo[2,3-e][1,2,4]triazolo[4,3-a]pyridin-4-yl)methanesulfonamide]",,
≤ 100,≤ 100,"COC(=O)Nc1cc2c(cc(C)n2Cc2ccccc2)n2c(C)nnc12 [Example 272, Methyl 6-benzyl-1,7-dimethyl-6H-pyrrolo[2,3-e][1,2,4]triazolo[4,3-a]pyridin-4-ylcarbamate]",,

Structure (SMILES),IC50 (BRD4-BD1) [nM],IC50 (BRD4-BD2) [nM],IC50 (KMS.12.BM cells) [nM],IC50 (KMS.12.BM cells; 72 h) [nM]
"Cc1nnc2ccc3c(cc(-c4cc[nH]n4)n3Cc3cccc(CN4CCC4)c3)n12 [Example 182, 6-[3-(Azetidin-1-ylmethyl)benzyl]-1-methyl-7-(1H-pyrazol-3-yl)-6H-pyrrolo[2,3-e][1,2,4]triazolo[4,3-a]pyridine tris(trifluoroacetate) Salt]",≤ 100,≤ 100,,≤ 1000
